In patent US4925649A, “Radioiodinated diacylglycerol analogues and methods of use” (The University of Michigan, priority 1987, dated 1990):

Tested on: intracellular PK-C
Experiment: [3H]PDBu binding to intact HL-60 cells
Assay type: cell-based, human
Conditions: 37° C., 30 minutes, FIG. 9, compared with naturally occurring diacylglycerol DiC8
Experimental: The diacylglycerol composition under investigation was stored in chloroform at -20° C. Prior to use, the diacylglycerol was dried under nitrogen and sonicated in RPMI-1640 growth media. HL-60 cells, derived from a human leukemia cell line, were cultured in RPMI-1640 growth media containing 10% horse serum. The cells were placed in fresh serum-containing growth media 24 hours prior to the experiment. Then, cells in log phase growth were placed in normal serum containing growth media with 20 mM HEPES buffer (pH 7.4) at a concentration of 5×10^6 cells/ml. The cells were incubated at 37° C. in 5% CO2 /air in the presence of [^3 H]PDBu and various concentrations of diacylglycerol.
Binding reactions were stopped after 30 minutes by filtering the cells over Whatman glass fiber GF/C filters and rinsing with cold phosphate buffered saline (pH 7.4). The filters were then dried and counted with a scintillation counter. Nonspecific binding was determined by adding 2 μM non-tritiated phorbol diester to parallel binding reactions. Specific [^3 H]PDBu binding was calculated by subtracting nonspecific [^3 H]PDBu from the total. All binding data are expressed in terms of specific binding. Specific binding typically represented 80% of the total.

## CCCCCCCC(=O)OCC(CO)OC(=O)CCc1cccc(I)c1 (racemic) [OIPG, 1-octanoyl-2-[3-(m-iodophenyl)propanoyl]-rac-glycerol]
  diacylglycerol inhibition of [3H]PDBu binding in intact HL-60 cells: capable of entering intact cells and binding to intracellular PK-C in a manner similar to a naturally occurring diacylglycerol
